What was measured:
[1] = Kinetics of adsorption of organic toxins to ACF-H in Standard Synthetic Test Water; details: STW, pH 6.9~7.0; for ACF-H 50% (estimated time to achieve designated toxin removal): 50% removal; for ACF-H >95% (estimated time to achieve designated toxin removal): >95% removal
[2] = Kinetics of adsorption of organic toxins to ACF-OH in Standard Synthetic Test Water; details: STW, pH 6.9~7.0; for ACF-OH 50% (estimated time to achieve designated toxin removal): 50% removal; for ACF-OH removal reached, in brackets in the >95% column: >95% not reached; for ACF-OH >95% (estimated time to achieve designated toxin removal): >95% removal
[3] = Kinetics of adsorption of organic toxins to ACF-SBX in Standard Synthetic Test Water; details: STW, pH 6.9~7.0; for ACF-SBX 50% (estimated time to achieve designated toxin removal): 50% removal; for ACF-SBX >95% (estimated time to achieve designated toxin removal): >95% removal
[4] = Log P (logarithm of measured partition coefficient)

| Compound | ACF-H 50% (estimated time to achieve designated toxin removal) [1] | ACF-H >95% (estimated time to achieve designated toxin removal) [1] [min] | ACF-OH 50% (estimated time to achieve designated toxin removal) [2] [min] | ACF-OH removal reached, in brackets in the >95% column [2] | ACF-SBX 50% (estimated time to achieve designated toxin removal) [3] [min] | ACF-SBX >95% (estimated time to achieve designated toxin removal) [3] [min] | logP (physchem) | logP [4] | Log P ([4]; logarithm of measured partition coefficient) | ACF-OH >95% (estimated time to achieve designated toxin removal) [2] [min] | ACF-H removal reached, in brackets in the >95% column ([1]; >95% not reached) |
| --- | --- | --- | --- | --- | --- | --- | --- | --- | --- | --- | --- |
| CCNc1nc(Cl)nc(NC(C)C)n1 [atrazine] | 2.0 min | 20.0 | 6.0 | (90%) | 1.6 | 10.0 | 2.61 |  |  |  |  |
| Oc1cc(Cl)ccc1Oc1ccc(Cl)cc1Cl [triclosan] | 2.5 min | 55.0 | 26.0 | (91%) | 1.7 | 46.7 |  | 4.53 |  |  |  |
| Cc1ccc(O)cc1 [p-cresol] |  |  |  |  |  |  | 1.97 |  |  |  |  |
| Clc1ccc(Cl)cc1 [p-dichlorobenzene] | 1.0 min | 2.0 | 1.0 |  | 1.0 | 2.0 |  |  | 3.44 | 2.0 |  |
| Oc1ccc(Cl)cc1Cl [2,4-dichlorophenol] | 1.5 min | 30.0 | 2.6 | (92%) | 2.3 | 30.0 | 3.17 |  |  |  |  |
| Cc1ccc(S(=O)(=O)[N-]Cl)cc1.[Na+] [chloramine-T] | 3.3 min | 25.0 | 50.0 | (82%) | 3.3 | 25.0 |  |  |  |  |  |
| CN(C)C(=O)Nc1ccc(Cl)c(Cl)c1 [diuron] | 3.0 min | 15.0 | 30.0 |  | 3.0 | 15.0 |  |  |  | 55.0 |  |
| Brc1c(Br)c(Br)c(Oc2c(Br)c(Br)c(Br)c(Br)c2Br)c(Br)c1Br [deca-BDE, decabromodiphenyl ether] | 0.4 min |  |  |  | 0.5 |  | 9.97 |  |  |  |  |
| CC(C)(c1ccc(O)cc1)c1ccc(O)cc1 [bisphenol A] | 5.0 min | 30.0 | 45.0 | (70%) | 4.0 | 30.0 | 3.32 |  |  |  |  |
| CCOC(=O)c1ccccc1C(=O)OCC [diethyl phthalate] | 5.0 min | 50.0 | 60.0 | (69%) | 3.5 | 25.0 | 2.42 |  |  |  |  |
| CCN(CC)N=O [NDEA, N-nitrosodiethylamine] | 3.8 min |  | 30.0 | (59%) | 4.6 | 60.0 | 0.48 |  |  |  | (93%) |
| O=[N+]([O-])c1ccc(O)cc1 [4-nitrophenol] | 0.8 min | 20.0 | 5.0 |  | 1.5 | 20.0 |  |  |  | 60.0 |  |
| Clc1ccccc1 [chlorobenzene] | 0.3 min | 2.0 | 0.3 |  | 0.3 | 2.0 |  |  |  | 2.0 |  |
| CCCCC(CC)COC(=O)c1ccccc1C(=O)OCC(CC)CCCC (stereo not shown) [DEHP, bis(2-ethylhexyl)phthalate] | 20.0 min | 80.0 | 43.3 | (92%) | 3.8 | 20.0 |  | 7.8 |  |  |  |
| CCc1ccccc1 [ethylbenzene] | 0.3 min |  | 0.3 |  | 0.3 |  |  |  |  | 0.5 |  |
| c1ccc2cc3ccccc3cc2c1 [anthracene] | ^♦0.5 min | 53.0 | 0.4 |  | 0.4 | 12.5 |  |  |  | 30.0 |  |
| Clc1ccccc1Cl [o-dichlorobenzene] | 1.5 min | 3.0 | 1.5 |  | 0.8 | 3.0 | 3.38 |  |  | 3.0 |  |
| CCCCCCCCCc1ccc(O)cc1 [4-nonylphenol] | 2.0 min | 30.0 | 57.0 | (73%) | 5.0 | 45.0 | 5.76 |  |  |  |  |
| O=c1[nH]c(=O)c2[nH]c(=O)[nH]c2[nH]1 [uric acid] | 3.0 min | 30.0 | 15.0 |  | 3.0 | 30.0 |  | -2.92 |  | 60.0 |  |
| C[C@]12CC[C@@H]3c4ccc(O)cc4CC[C@H]3[C@@H]1CC[C@@H]2O [17β-estradiol] | 0.5 min | 10.0 | 0.5 |  | 0.5 | 10.0 |  |  |  | 50.0 |  |

— patent US10683216B2, “Selective adsorbent fabric for water purification” (Chemica Technologies, Inc., priority 2013, dated 2020)
